Consider 24 molecules from patent US20150087673A1, “METHODS FOR USING AND BIOMARKERS FOR AMPK-ACTIVATING COMPOUNDS” (RIGEL PHARMACEUTICALS, INC., priority 2013, published 2015).

The test system of this assay is AMPK. The experiment in a line: AMPK activation assay (enzyme-linked immunosorbent assay). In kind it is cell-based. In outline:
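Read-out: immunodetected kinase activation after compound exposure, run with commercial kit reagents.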
As for `N#Cc1ccc(CN2CCC(NC(=O)c3ccc(C(=O)N4CCC(C(=O)c5ccc(F)cc5)CC4)cn3)CC2)cc1` [Compound 136, N-(1-(4-cyanobenzyl)piperidin-4-yl)-5-(4-(4-fluorobenzoyl)piperidine-1-carbonyl)picolinamide], the EC50 is < 500 nM.

For `COc1ccc(N2CCC(Nc3ccc(C(=O)NC4CCN(Cc5ccc(C#N)cc5)CC4)nc3)CC2)cc1` [Compound 275, N-(1-(4-cyanobenzyl)piperidin-4-yl)-5-(1-(4-methoxyphenyl)piperidin-4-ylamino)picolinamide], the EC50 is < 500 nM.

For `O=C(c1ccc(C(=O)N2CCN(CCc3ccccc3)CC2)nc1)N1CCN(CCc2ccccc2)CC1` [Compound 92, pyridine-2,5-diylbis((4-phenethylpiperazin-1-yl)methanone)], the concentration giving a half-maximal response (EC50) was > 10000 nM.

With `COc1ccc(CN2CCC(NC(=O)c3ccc(C(=O)N4CCN(Cc5ccc(F)cc5)CC4)nc3)CC2)cc1` [Compound 327, 6-(4-(4-fluorobenzyl)piperazine-1-carbonyl)-N-(1-(4-methoxybenzyl)piperidin-4-yl) nicotinamide], the concentration for a half-maximal effect (EC50) is < 500 nM.

With `COc1ccc(OC2CCN(C(=O)c3ccc(C(=O)Nc4ccc(Oc5ccc(F)cc5)nc4)nc3)CC2)cc1` [Compound 70, 5-(4-(4-methoxyphenoxy)piperidine-1-carbonyl)-N-(6-(4-fluorophenoxy)pyridin-3-yl)picolinamide], the EC50 is < 500 nM.

Take `N#Cc1ccc(N2CCC(NC(=O)c3ccc(C(=O)N4CCN(Cc5ccc(F)cc5)CC4)nc3)CC2)cc1` [Compound 417, N-(1-(4-cyanophenyl)piperidin-4-yl)-6-(4-(4-fluorobenzyl)piperazine-1-carbonyl)nicotinamide]: the EC50 was < 500 nM.

On to `N#Cc1ccc(CN2CCC(NC(=O)c3cccc(C(=O)NC4CCN(Cc5ccc(C#N)cc5)CC4)n3)CC2)cc1` [Compound 86, N2,N6-bis(1-(4-cyanobenzyl)piperidin-4-yl)pyridine-2,6-dicarboxamide], for which the concentration giving a half-maximal response (EC50) lay in the range of 1000 to 5000 nM.

`N#Cc1ccc(CNC(=O)c2ccc(-c3ccc(C(=O)N4CCN(Cc5ccc(F)cc5)CC4)cn3)cc2)cc1` [Compound 35, (6-(4-(4-cyanobenzylcarbamoyl)phenyl)pyridin-3-yl)(4-(4-fluorobenzyl)piperazin-1-yl)methanone]: the concentration for a half-maximal effect (EC50) is 500 to 1000 nM.

`N#Cc1ccc(CN2CCC(NC(=O)c3ccc(C(=O)N4CCC(C(=O)c5ccc(-n6cccn6)cc5)CC4)cn3)CC2)cc1` [Compound 375, 5-(4-(4-(1H-pyrazol-1-yl)benzoyl)piperidine-1-carbonyl)-N-(1-(4-cyanobenzyl)piperidin-4-yl)picolinamide]: the EC50 was < 500 nM.

For `N#Cc1ccc(C(=O)N2CCC(NC(=O)c3ccc(C(=O)N4CCN(Cc5ccc(F)cc5)CC4)cn3)CC2)cc1` [Compound 4, N-(1-(4-cyanobenzoyl)piperidin-4-yl)-5-(4-(4-fluorobenzyl)piperazine-1-carbonyl)picolinamide], the EC50 was in the range of 500 to 1000 nM.

In the case of `N#Cc1ccc(CN2CCC(NC(=O)c3ccc(C(=O)N4CC[C@H](Oc5ccc(C#N)cc5)[C@@H](F)C4)cn3)CC2)cc1` (relative stereo) [Compound 279, N-(1-(4-cyanobenzyl)piperidin-4-yl)-5-((trans)-4-(4-cyanophenoxy)-3-fluoropiperidine-1-carbonyl)picolinamide], the EC50 is < 500 nM.

As to `O=C(NC1CCN(Cc2cc(F)cc(F)c2)CC1)c1ccc(C(=O)N2CC(OCc3ccc(F)cc3)C2)cn1` [Compound 308, N-(1-(3,5-difluorobenzyl)piperidin-4-yl)-5-(3-(4-fluorobenzyloxy)azetidine-1-carbonyl)picolinamide], the EC50 is < 500 nM.

As for `O=C(NCc1ccccc1)c1ccc(C(=O)N2CCN(Cc3ccc(F)cc3)CC2)cn1` [Compound 115, N-benzyl-5-(4-(4-fluorobenzyl)piperazine-1-carbonyl)picolinamide], the EC50 was 5000 to 10000 nM.

As for `N#Cc1ccc(CN2CCC(NC(=O)c3ccc(C(=O)N4CCN(C5CCOCC5)CC4)cn3)CC2)cc1` [Compound 83, N-(1-(4-cyanobenzyl)piperidin-4-yl)-5-(4-(tetrahydro-2H-pyran-4-yl)piperazine-1-carbonyl)picolinamide], the concentration giving a half-maximal response (EC50) was > 10000 nM.

Regarding `N#Cc1ccc(CN2CCC(NC(=O)c3ccc(C(=O)N4CCC(Oc5ccc(S(F)(F)(F)(F)F)cc5)CC4)cn3)CC2)cc1` [Compound 492, N-(1-(4-cyanobenzyl)piperidin-4-yl)-5-(4-(4-(pentafluorosulfanyl)phenoxy)piperidine-1-carbonyl)picolinamide], the EC50 is < 500 nM.

With `COc1ccc(CN2CCC(NC(=O)c3ccc(C(=O)N4CCC(Oc5ccc(C#N)cc5)CC4)nc3)CC2)cc1` [Compound 319, 6-(4-(4-cyanophenoxy)piperidine-1-carbonyl)-N-(1-(4-methoxybenzyl)piperidin-4-yl) nicotinamide], the concentration for a half-maximal effect (EC50) was < 500 nM.

`N#Cc1ccc(CN2CCC(NC(=O)c3ccc(C(=O)N4CCC(Cc5ccc(C(N)=O)cc5)CC4)cn3)CC2)cc1` [Compound 141, 5-(4-(4-carbamoylbenzyl)piperidine-1-carbonyl)-N-(1-(4-cyanobenzyl)piperidin-4-yl)picolinamide] gave a concentration for a half-maximal effect (EC50) of 500 to 1000 nM.

With `CC(=O)Nc1cccc(OC2CCN(C(=O)c3ccc(C(=O)NC4CCN(Cc5ccc(C#N)cc5)CC4)cn3)CC2)c1` [Compound 411, 6-(4-(3-acetamidophenoxy)piperidine-1-carbonyl)-N-(1-(4-cyanobenzyl)piperidin-4-yl)nicotinamide], the EC50 lay in the range of 1000 to 5000 nM.

`N#Cc1ccc(CN2CCC(NC(=O)c3ccc(C(=O)N4CCN(C(=O)C5CCCCC5)CC4)cn3)CC2)cc1` [Compound 89, N-(1-(4-cyanobenzyl)piperidin-4-yl)-5-(4-(cyclohexanecarbonyl)piperazine-1-carbonyl)picolinamide] came in with a concentration giving a half-maximal response (EC50) of 1000 to 5000 nM.

Regarding `CC(C)S(=O)(=O)c1ccc(N2CCN(C(=O)c3ccc(C(=O)NC4CCN(Cc5ccc(C#N)cc5)CC4)nc3)CC2)cc1` [Compound 251, N-(1-(4-cyanobenzyl)piperidin-4-yl)-5-(4-(4-(isopropylsulfonyl)phenyl)piperazine-1-carbonyl)picolinamide], the half-maximal effective concentration (EC50) was < 500 nM.

In turn, `O=C(c1ccc(C(=O)N2CCN(Cc3ccccc3)CC2)nc1)N1CCN(Cc2ccccc2)CC1` [Compound 73, pyridine-2,5-diylbis((4-benzylpiperazin-1-yl)methanone)] displayed a concentration for a half-maximal effect (EC50) of 5000 to 10000 nM.

Take `CS(=O)(=O)c1ccc(OC2CCN(C(=O)c3ccc(C(=O)NC4CCN(Cc5cc(F)cc(F)c5)CC4)cn3)CC2)cc1` [Compound 236, N-(1-(3,5-difluorobenzyl)piperidin-4-yl)-6-(4-(4-(methylsulfonyl)phenoxy)piperidine-1-carbonyl)nicotinamide]: the half-maximal effective concentration (EC50) is < 500 nM.

For the molecule `COc1ccc(C(=O)C2CCN(C(=O)c3cnc(C(=O)NC4CCN(Cc5ccc(C#N)cc5)CC4)cn3)CC2)cc1` [Compound 211, N-(1-(4-cyanobenzyl)piperidin-4-yl)-5-(4-(4-methoxybenzoyl)piperidine-1-carbonyl)pyrazine-2-carboxamide], the EC50 is < 500 nM.

Regarding `CC(=O)c1ccc(Oc2ccc(NC(=O)c3ccc(C(=O)N4CCC(Oc5ccc(C(=O)N(C)C)cc5)CC4)nc3)cn2)cc1` [Compound 488, N-(6-(4-acetylphenoxy)pyridin-3-yl)-6-(4-(4-(dimethylcarbamoyl)phenoxy)piperidine-1-carbonyl)nicotinamide], the half-maximal effective concentration (EC50) is < 500 nM.

In general, EC50 refers to the concentration needed to bring the measured effect to its halfway point. High values mean weaker potency, low ones greater potency.
